Values after ≈ are worked out from the molar mass of the structure shown.
How the values were obtained:
P. batsensis [1] = assay: Bacterial growth inhibition assay (OD600nm); assay type: cell-based, Pseudooceanicola batsensis; details: CuSO4 5 μM reference
Protocol: (§1) As a first screening approach, liquid cultures of M. hydrocarbonoclasticus, and C. marina in a 96-well format were analyzed for bacterial growth inhibition by percent decrease in OD600 after incubation with napyradiomycins (1–12) at 31.25 µg/mL.
(§2) Five marine bacterial species were used as models to assess antimicrofouling activity. The biofilm-forming marine bacteria Marinobacter hydrocarbonoclasticus DSM 8798 (ATCC 49840), Cobetia marina DSM 4741, Phaeobacter inhibens DSM 17,395, and Pseusooceanicola batsensis DSM 15,984 were obtained from DSMZ (Leibniz Institute DSMZ—German collection of Microorganisms and Cell Cultures) and Micrococcus luteus. Cultures were routinely grown in liquid marine broth (Carl Roth GmbH, Karlsruhe, Germany) with agitation (180 rpm) or on agar-supplemented marine broth, at 28 °C (M. hydrocarbonoclasticus and C. marina) or 30 °C (P. inhibens and P. batsensis). M. luteus was maintained in Brain Heart Infusion broth (BHI, Becton Dickinson, GmbH, Heidelberg, Germany) with agitation (180 rpm) or on agar-supplemented BHI, at 37 °C.
(§3) The antibacterial activity of the napyradiomycins (1–12) was assessed in 96-well polystyrene flat bottom microplates (Nunclon Delta Surface, Thermo Scientific, Roskilde, Denmark) following previously reported procedures. For initial screening, bacterial overnight cultures were diluted to an optical density (OD600nm) of 0.2 and incubated statically at 28 °C (M. hydrocarbonoclasticus, C. marina), 30 °C (P. inhibens, P. batsensis) or 37 °C (M. luteus) in a 96-well microplate in the presence or absence of 31.25 µg/mL of the napyradiomycins, solubilized in DMSO. After 24 h (M. hydrocarbonoclasticus, C. marina) or 48 h (P. batsensis, P. inhibens, M. luteus) incubation, the OD600nm was determined (Molecular Devices, Spectra Max 190). […] The percentage of growth inhibition was calculated as the amount of growth relative to that of the bacterial species without added compounds (with the same amount of DMSO added). CuSO4 (5 μM), a potent antifouling agent used in antifouling paints, was used as reference.
(§4) All assays were performed in triplicate, and results are representative of the average and standard error of the mean (SEM). Statistical analysis was performed in GraphPad Prism 8.0.2 (San Diego, CA, USA), using one-way ANOVA followed by a Dunnett’s multiple comparisons test against the control (species grown with the same amount of DMSO added).

M. hydrocarbonoclasticus [2] = assay: Biofilm inhibition assay (crystal violet); assay type: cell-based, Marinobacter hydrocarbonoclasticus
Protocol: (§5) In a 96-well plate, biofilm grown cultures of M. hydrocarbonoclasticus and C. marina were incubated with napyradiomycins (1–12) at a concentration of 31.25 µg/mL. After discarding the media, biofilm inhibition was determined from OD600 measurements of crystal violet stained cells resuspended from the plate bottom with acetic acid.
as §2
(§6) The antibiofilm activity of napyradiomycins (1–12) against the five marine bacterial species was assessed in 96-well polystyrene flat bottom microplates (Nunclon Delta Surface, Thermo Scientific, Roskilde, Denmark) as previously reported. For initial screening, bacterial overnight cultures were diluted to an optical density (OD600nm) value of 0.2 and incubated statically at 28 °C (M. hydrocarbonoclasticus, C. marina), 30 °C (P. inhibens, P. batsensis) or 37 °C (M. luteus) in the 96-well microplate in the presence or absence of 31.25 µg/mL of napyradiomycins, solubilized in DMSO. After 24 h (M. hydrocarbonoclasticus, C. marina) or 48 h (P. batsensis, P. inhibens, M. luteus) incubation, the OD600nm was determined. The planktonic cells and media were discarded, and the wells were washed twice with deionized water. The biofilm was fixed for 1 h at 60 °C and stained with crystal violet 0.06% for 10 min. The dye was discarded, and the wells were again washed twice with deionized water. The stained biofilm was solubilized with 30% acetic acid and the OD600nm was determined. […] The percentage of biofilm inhibition was calculated as the amount of biofilm relative to that of the bacterial species without added compounds (with the same amount of DMSO added). CuSO4 (5 μM), a potent antifouling agent used in antifouling paints, was used as reference.
as §4, with “8.0.2,” for “8.0.2 (San Diego, CA, USA),”

P. inhibens [3] = assay: Bacterial growth inhibition assay (OD600nm); assay type: cell-based, Phaeobacter inhibens; details: CuSO4 5 μM reference
Protocol: as §1
Five marine bacterial species were used as models to assess antimicrofouling activity. The biofilm-forming marine bacteria Marinobacter hydrocarbonoclasticus DSM 8798 (ATCC 49840), Cobetia marina DSM 4741, Phaeobacter inhibens DSM 17,395, and Pseusooceanicola batsensis DSM 15,984 were obtained from DSMZ (Leibniz Institute DSMZ—German collection of Microorganisms and Cell Cultures) and Micrococcus luteus. […]
The antibacterial activity of the napyradiomycins (1–12) was assessed in 96-well polystyrene flat bottom microplates (Nunclon Delta Surface, Thermo Scientific, Roskilde, Denmark) following previously reported procedures. […] After 24 h (M. hydrocarbonoclasticus, C. marina) or 48 h (P. batsensis, P. inhibens, M. luteus) incubation, the OD600nm was determined (Molecular Devices, Spectra Max 190). […] The percentage of growth inhibition was calculated as the amount of growth relative to that of the bacterial species without added compounds (with the same amount of DMSO added). […]

C. marina [4] = assay: Bacterial growth inhibition assay (OD600nm); assay type: cell-based, Cobetia marina
Text: as §2
(§7) The antibacterial activity of the napyradiomycins (1–12) was assessed in 96-well polystyrene flat bottom microplates (Nunclon Delta Surface, Thermo Scientific, Roskilde, Denmark) following previously reported procedures. […] After 24 h (M. hydrocarbonoclasticus, C. marina) or 48 h (P. batsensis, P. inhibens, M. luteus) incubation, the OD600nm was determined (Molecular Devices, Spectra Max 190). […] The percentage of growth inhibition was calculated as the amount of growth relative to that of the bacterial species without added compounds (with the same amount of DMSO added). CuSO4 (5 μM), a potent antifouling agent used in antifouling paints, was used as reference.
as §4

P. inhibens [5] = assay: Biofilm inhibition assay (crystal violet); assay type: cell-based, Phaeobacter inhibens; details: CuSO4 5 μM reference
Protocol: as §5, §2, §6
All assays were performed in triplicate, and results are representative of the average and standard error of the mean (SEM). […]

M. luteus [6] = assay: Bacterial growth inhibition assay (OD600nm); assay type: cell-based, Micrococcus luteus; details: CuSO4 5 μM reference
Text: as §2, §7, §4

P. batsensis [7] = assay: Biofilm inhibition assay (crystal violet); assay type: cell-based, Pseudooceanicola batsensis; details: CuSO4 5 μM reference
Protocol: as §5, §2, §6
as §4, with “8.0.2,” for “8.0.2 (San Diego, CA, USA),”

M. luteus [8] = assay: Biofilm inhibition assay (crystal violet); assay type: cell-based, Micrococcus luteus; details: CuSO4 5 μM reference
Protocol: as §5, §2, §6
as §4, with “8.0.2,” for “8.0.2 (San Diego, CA, USA),”

C. marina [9] = assay: Biofilm inhibition assay (crystal violet); assay type: cell-based, Cobetia marina
Protocol: as §5, §2, §6
as §4, with “8.0.2,” for “8.0.2 (San Diego, CA, USA),”

M. hydrocarbonoclasticus [10] = assay: Bacterial growth inhibition assay (OD600nm); assay type: cell-based, Marinobacter hydrocarbonoclasticus
Protocol: as §1, §2, §3, §4

Daphnia magna [11] = details: experimental data ref Tisler and Zagorc-Koncan, 2003; cited from earlier work
Daphnia magna [12] = details: experimental data ref Tisler and Zagorc-Koncan, 2003; cited from earlier work; remark: listed apart in the source
[13] = cited from earlier work
Scenedesmus quadricauda = details: experimental data ref Tisler and Zagorc-Koncan, 2003; cited from earlier work
Orcorhynchus mykiss = details: experimental data ref Tisler and Zagorc-Koncan, 2003; cited from earlier work
Oral rat/rabit = details: ref Acros Organics safety data sheet; cited from earlier work
[14] = Mussel plantigrade larvae settlement, 15 h acute exposure assay; assay type: in vivo; details: Mytilus galloprovincialis (mussel, plantigrade larvae), in vivo, no mortality at highest tested concentration 12 µg/mL
Protocol: (§8) Mussel (M. galloprovincialis) adhesive larvae (plantigrades) were used to assess in vivo the antifouling activity of napyradiomycins (1–12) towards macrofouling. Juvenile mussel aggregates were collected at the intertidal rocky shore during low spring tides, at Memória beach, Matosinhos, Portugal (41°13′59″ N; 8°43′28″ W). At the laboratory, immediately before the bioassays, mussel plantigrade larvae were screened and isolated from the juvenile aggregates using a binocular microscope (Olympus SZX2-ILLT, Hamburg, Germany) and washed with filtered seawater to remove organic debris. Only competent plantigrade larvae (those showing foot exploratory behavior) were selected and used in the exposure bioassays following previously validated procedures. Plantigrades were exposed in 24-well polystyrene plates for 15 h in the darkness at 18 °C. DMSO was used as solvent for crude extracts, fractions and pure compounds stock and working solutions. Working solutions were prepared by successive dilutions of stock solutions in DMSO and then diluted in filtered seawater to obtain the test solutions. DMSO concentration in test solutions was always 0.1%. Four well replicates were used per condition with five larvae per well. Two negative controls, one with ultra-pure water and the other with DMSO 0.1% were included in all bioassays, as well as a positive control with 5 μM CuSO4 (a potent antifouling agent). Anti-settlement bioactivity was determined by the presence/absence of fixed byssal threads produced by each individual larvae for all the conditions tested. […] Chi-square Pearsons goodness-of-fit test was applied to data in order to determine EC50. Significance was considered at p < 0.01 for all analyses, and 95% lower and upper confidence limits [95% LCL; UCL] were presented. Therapeutic ratio (LC50/EC50) was used to evaluate the effectiveness vs. toxicity of compounds [19, 21].

[15] = system: M. galloprovincialis plantigrade larvae; assay: as above; assay type: in vivo; details: 95% LCL, UCL in brackets
Protocol: as §8

Structure (SMILES): O=S(=O)([O-])[O-].[Cu+2] [CuSO4, reference compound]
- % growth inhibition P. batsensis (P. batsensis [1]): 44.8 ± 6.3%
- biofilm inhibition M. hydrocarbonoclasticus (M. hydrocarbonoclasticus [2]; CuSO4 5 μM reference): not inhibited
- % growth inhibition P. inhibens (P. inhibens [3]): 66.2 ± 5.6%
- growth inhibition C. marina (C. marina [4]; CuSO4 5 μM reference): not inhibited
- % biofilm inhibition P. inhibens (P. inhibens [5]): 12.9 ± 6.4%
- growth inhibition M. luteus (M. luteus [6]): not inhibited
- % biofilm inhibition P. batsensis (P. batsensis [7]): 41.4 ± 0.9%
- biofilm inhibition M. luteus (M. luteus [8]): not inhibited
- biofilm inhibition C. marina (C. marina [9]; CuSO4 5 μM reference): not inhibited
- % growth inhibition M. hydrocarbonoclasticus (M. hydrocarbonoclasticus [10]; CuSO4 5 μM reference): 35.8 ± 0.8%

Structure (SMILES): [As] [Arsenic]
- Aquatic toxicity Daphnia magna EC50 48 hour (Daphnia magna [11]): 2.5 µg/mL
- Chronic toxicity Daphnia magna 21 day NOEC (Daphnia magna [12]): 1.85 mg/L
- ATE category [13]: 2 (category 2, 5 < ATE ≤ 50 mg/Kg)
- Aquatic toxicity Alga Scenedesmus quadricauda 72 hour IC50 (Scenedesmus quadricauda): 34.7 µg/mL
- Aquatic toxicity Fish Orcorhynchus mykiss 96 hour LC50 (Orcorhynchus mykiss): 15.3 µg/mL
- Acute toxicity Oral rat/rabit LD50 (Oral rat/rabit): 12 mg/kg

Structure (SMILES): C=C1CCC(Cl)C(C)(C)C1C[C@@]12OC(C)(C)[C@H](Cl)C=C1C(=O)c1c(cc(O)c(C)c1O)C2=O (some centres unmarked) [Napyradiomycin 12, 4-dehydro-4a-dechloro-napyradiomycin A80915A]
- inhibition at 31.25 µg/mL (M. hydrocarbonoclasticus [2]; Marinobacter nauticus, 31.25 µg/mL, read-out: % Biofilm Inhibition ± SEM M. hydrocarbonoclasticus): 33.7 ± 5.1%
- LC50 at 15 h [14]: > 12 µg/mL
- EC50 [Conf. limits] larval settlement [15]: 0.947 [0.586; 1.473] µg/mL
- EC50 ([15]; Mytilus galloprovincialis, 15 h, read-out: EC50 [Conf. limits] larval settlement): 0.95 µg/mL (≈ 1.93 µM)
- % growth inhibition C. marina (C. marina [4]; 31.25 µg/mL): did not inhibit growth
- % Biofilm Inhibition ± SEM C. marina (C. marina [9]; 31.25 µg/mL): N.I.
- % growth inhibition M. hydrocarbonoclasticus (M. hydrocarbonoclasticus [10]; 31.25 µg/mL): did not inhibit growth

Reference: article PMC7024211, “Antifouling Napyradiomycins from Marine-Derived Actinomycetes Streptomyces aculeolatus” (Marine Drugs, 2020)
